Data on 2 molecules can be found in patent US6239104A, “Isolation and structural elucidation of the cytostatic linear and cyclo-depsipeptides dolastatin 16, dolastatin 17, and dolastatin 18” (priority 1999, dated 2001).

Values after ≈ are worked out from the molar mass of the structure shown. Starred links: 1 amine or outer side, 2 acyl side, 3 side chain; linkers in the order of their positions; H or OH if unused. Non-standard residues stand in square brackets, D forms with d. Residues, ends and D or L forms follow the SMILES beside them. X1 = CC(Cc1ccccc1)C(N[*:1])C(=O)[*:2]; X2 = CC(C)C(N[*:1])C(C)C(=O)[*:2]; dNMeV = CN[C@@H](C(=O)O)C(C)C; dHiv = CC(C)[C@@H](O)C(=O)O; Lac = C[C@H](O)C(=O)O

What all share (assay type): cell-based
The subject of one assay is SF-295. The experiment in a line: NCI human cancer cell line minipanel, brain SF-295.
Text: (§1) The administration of Dolastatin 16 is useful for treating neoplastic disease associated with malignant cell growth, and expectedly its synthetic counterpart, as well as, its pharmaceutically and physiologically active derivatives will be useful for treating neoplastic disease associated with malignant cell growth in animals and humans. For example, Dolastatin 16 was screened against a minipanel of the U.S. National Cancer Institute's human cancer cell lines utilizing protocols described by Michael R. Boyd and Kenneth D. Paul in Some Practical Considerations and Applications of the National Cancer Institute In Vitro Anticancer Drug Discovery Screen, 34 DRUG D[…] 91 (1995) (and references cited therein).
as §1, with “17” for “16”, “91 (1995) (and references cited therein).” left out

The subject of assay [1] is five human leukemia cell lines. As to the kind of experiment: NCI screen, five human leukemia cell lines. To be noted: in words.
Text: as §1

For the next assay, the system named is KM 20L2. The experiment in a line: NCI human cancer cell line minipanel, colon KM 20L2.
Text: as §1
as §1, with “17” for “16”, “91 (1995) (and references cited therein).” left out

In another assay the test system is NCI-H460. The experiment in a line: NCI human cancer cell line minipanel, lung NCI-H460.
Text: as §1
as §1, with “17” for “16”, “91 (1995) (and references cited therein).” left out

Assay [2] concerns complete panel of sixty human cancer cell lines. As to the kind of experiment: NCI complete panel of sixty human cancer cell lines.
Text: as §1

The next assay has as its system SK-MEL-5. As to the kind of experiment: NCI human cancer cell line minipanel, melanoma SK-MEL-5.
Text: as §1

The test system of assay [3] is a selection of human cancer cell lines, including lung cancer. As to the kind of experiment: NCI minipanel, selection of human cancer cell lines. The conditions noted are these: in words.
Text: as §1, with “18” for “16”

Broadly, the GI50 is the concentration at which growth is held to half of that of the control. Low values mean greater sensitivity of the cells, high ones lower sensitivity of the cells. Take `CC(C)C1NC(=O)[C@@H]2CCCN2C(=O)C(C(C)Cc2ccccc2)NC(=O)[C@@H]2CCCN2C(=O)[C@@H](C(C)C)N(C)C(=O)[C@@H](C(C)C)OC(=O)[C@@H]2CCCN2C(=O)[C@H](C)OC(=O)C1C` (some centres unmarked) [Dolastatin 16, cyclo-(Pro^1 --Dpv^2 --Pro^3 --Dml^4 --O--Lac^5 --Pro^6 --O--Hiv^7 --MeVal^8)] (cyclo([Lac]P[dHiv][dNMeV]P[X1]P[X2])): the GI50 in the assay with SF-295 came out at 5.2 ng/mL (≈ 5.92 nM); in the assay with KM 20L2, 1.2 ng/mL (≈ 1.37 nM); with NCI-H460 (lung NCI-H460), 0.96 ng/mL (≈ 1.09 nM); in assay [2] it was 250 nM; in the assay on SK-MEL-5 it was 3.3 ng/mL (≈ 3.75 nM). In addition, the growth inhibition entry in assay [1] is “comparable inhibitory results”.
The molecule `CCCC(=O)C(C)(C)C(=O)N[C@@H](CC(C)C)C(=O)N(C)[C@H](Cc1ccccc1)C(=O)N[C@@H](Cc1ccccc1)c1nccs1` [Dolastatin 18, Dhex--Leu--MePhe--Doe] came in with an ED50 in the assay with NCI-H460 (lung cancer NCI-H460) of 390 ng/mL (≈ 630 nM). In assay [3], the growth inhibition result was “significantly inhibit growth”.
